# Data published in the supplement of paper PMC10307832.
# Compound: COc1cc(Nc2ncc(F)c(Nc3ccc4c(n3)NC(=O)C(C)(C)O4)n2)cc(OC)c1OC [R406] + CC(=O)c1c(C)c2cnc(Nc3ccc(N4CCNCC4)cn3)nc2n(C2CCCC2)c1=O [Palbociclib] (partner 0.5 µM)
# Experiment: relative viability (nuclei count vs DMSO), 5 days (fraction); higher = more cells survive
# Conditions: first compound 0.08 µM
# How it was run: (§1)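 Lung cancer cell lines were pin-tool dosed in 1536-well plates on the day after seeding, with either a lone drug or a fixed anchor-drug dose plus five library-drug doses (not always all listed) in √10 steps. Nuclei were counted on 4× images after 5 days. Relative viability is the ratio of treated-well to vehicle-well nuclei counts, with each value a median of duplicate plates.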
row,Cell Line,relative viability
1,EKVX,0.362
2,LC-2-ad,0.414
3,NCI-H1975,0.537
4,SK-LU-1,0.392
5,ABC-1,0.777
6,NCI-H1944,0.333
7,NCI-H661,0.398
8,RERF-LC-KJ,1.04

# Same assay, conditions: first compound 0.253 µM
row,Cell Line,relative viability
1,NCI-H2228,1.07
2,NCI-H1792,0.721
3,NCI-H1355,0.366
4,NCI-H3122,0.184
5,NCI-H1437,0.349
6,NCI-H1755,0.456
7,NCI-H2023,0.355
8,HCC-15,0.827
9,PC-3 [JPC-3],0.591
10,EKVX,0.417
11,LC-2-ad,0.571
12,NCI-H1975,0.734
13,SK-LU-1,0.423
14,ABC-1,0.784
15,NCI-H1944,0.312
16,NCI-H661,0.411
17,RERF-LC-KJ,1.19

# Same assay, conditions: first compound 0.8 µM
row,Cell Line,relative viability
1,NCI-H2228,0.688
2,NCI-H1792,0.708
3,NCI-H1355,0.416
4,NCI-H3122,0.178
5,NCI-H1437,0.363
6,NCI-H1755,0.422
7,NCI-H2023,0.359
8,HCC-15,0.801
9,PC-3 [JPC-3],0.582
10,EKVX,0.373
11,LC-2-ad,0.501
12,NCI-H1975,0.644
13,SK-LU-1,0.367
14,ABC-1,0.48
15,NCI-H1944,0.329
16,NCI-H661,0.382
17,RERF-LC-KJ,1.07

# Same assay, conditions: first compound 2.53 µM
row,Cell Line,relative viability
1,NCI-H2228,0.244
2,NCI-H1792,0.506
3,NCI-H1355,0.329
4,NCI-H3122,0.237
5,NCI-H1437,0.391
6,NCI-H1755,0.421
7,NCI-H2023,0.174
8,HCC-15,0.728
9,PC-3 [JPC-3],0.549
10,EKVX,0.333
11,LC-2-ad,0.408
12,NCI-H1975,0.115
13,SK-LU-1,0.258
14,ABC-1,0.653
15,NCI-H1944,0.252
16,NCI-H661,0.42
17,RERF-LC-KJ,0.883

# Same assay, conditions: first compound 8 µM
row,Cell Line,relative viability
1,NCI-H2228,0.427
2,NCI-H1792,0.518
3,NCI-H1355,0.278
4,NCI-H3122,0.238
5,NCI-H1437,0.229
6,NCI-H1755,0.397
7,NCI-H2023,0.106
8,HCC-15,0.594
9,PC-3 [JPC-3],0.45
10,EKVX,0.315
11,LC-2-ad,0.277
12,NCI-H1975,0.192
13,SK-LU-1,0.191
14,ABC-1,0.492
15,NCI-H1944,0.241
16,NCI-H661,0.322
17,RERF-LC-KJ,0.86

# Compound: COc1cc(Nc2ncc(F)c(Nc3ccc4c(n3)NC(=O)C(C)(C)O4)n2)cc(OC)c1OC [R406] + COc1cccc2cc(-c3nc([C@H]4CC[C@H](C(=O)O)CC4)n4ncnc(N)c34)[nH]c12 [OSI-027] (partner 0.5 µM)
# Experiment: as above
# Conditions: first compound 0.08 µM
# How it was run: as §1
row,Cell Line,relative viability
1,NCI-H2228,0.529
2,NCI-H1792,0.642
3,NCI-H1355,0.474
4,NCI-H3122,0.956
5,NCI-H1437,0.91
6,NCI-H1755,0.667
7,NCI-H2023,0.413
8,HCC-15,0.701
9,PC-3 [JPC-3],0.854
10,EKVX,0.721
11,LC-2-ad,0.872
12,NCI-H1975,0.699
13,SK-LU-1,0.312
14,ABC-1,0.554
15,NCI-H1944,0.398
16,NCI-H661,0.674
17,RERF-LC-KJ,0.609

# Same assay, conditions: first compound 0.253 µM
row,Cell Line,relative viability
1,NCI-H2228,0.574
2,NCI-H1792,0.772
3,NCI-H1355,0.404
4,NCI-H3122,1.06
5,NCI-H1437,0.86
6,NCI-H1755,0.78
7,NCI-H2023,0.464
8,HCC-15,0.928
9,PC-3 [JPC-3],0.872
10,EKVX,0.739
11,LC-2-ad,0.878
12,NCI-H1975,0.678
13,SK-LU-1,0.337
14,ABC-1,0.477
15,NCI-H1944,0.41
16,NCI-H661,0.819
17,RERF-LC-KJ,0.588

# Same assay, conditions: first compound 0.8 µM
row,Cell Line,relative viability
1,NCI-H2228,0.867
2,NCI-H1792,0.784
3,NCI-H1355,0.456
4,NCI-H3122,1.01
5,NCI-H1437,1.11
6,NCI-H1755,0.692
7,NCI-H2023,0.488
8,HCC-15,0.832
9,PC-3 [JPC-3],0.932
10,EKVX,0.778
11,LC-2-ad,0.838
12,NCI-H1975,0.854
13,SK-LU-1,0.424
14,ABC-1,0.531
15,NCI-H1944,0.419
16,NCI-H661,0.702
17,RERF-LC-KJ,0.623

# Same assay, conditions: first compound 2.53 µM
row,Cell Line,relative viability
1,NCI-H2228,0.138
2,NCI-H1792,0.37
3,NCI-H1355,0.163
4,NCI-H3122,0.319
5,NCI-H1437,0.835
6,NCI-H1755,0.331
7,NCI-H2023,0.134
8,HCC-15,0.505
9,PC-3 [JPC-3],0.494
10,EKVX,0.601
11,LC-2-ad,0.504
12,NCI-H1975,0.252
13,SK-LU-1,0.153
14,ABC-1,0.341
15,NCI-H1944,0.304
16,NCI-H661,0.501
17,RERF-LC-KJ,0.432

# Same assay, conditions: first compound 8 µM
row,Cell Line,relative viability
1,NCI-H2228,0.163
2,NCI-H1792,0.378
3,NCI-H1355,0.189
4,NCI-H3122,0.78
5,NCI-H1437,0.593
6,NCI-H1755,0.376
7,NCI-H2023,0.0924
8,HCC-15,0.439
9,PC-3 [JPC-3],0.427
10,EKVX,0.552
11,LC-2-ad,0.34
12,NCI-H1975,0.15
13,SK-LU-1,0.0841
14,ABC-1,0.304
15,NCI-H1944,0.242
16,NCI-H661,0.38
17,RERF-LC-KJ,0.392
